Source: the supplement of paper PMC13380429

What was measured:
Details in all cases: 72 h
Calu-3 [1] = experiment: relative viability EC50 (midpoint between 100% and the lowest measured viability); higher = less toxic
Vero E6 [2] = experiment: as above
U2OS [3] = experiment: as above
HepG2 [4] = experiment: as above
Caco-2 [5] = experiment: as above
Calu-3 [6] = experiment: cell viability relative to DMSO; higher = less toxic
Vero E6 [7] = experiment: as above
U2OS [8] = experiment: as above
HepG2 [9] = experiment: as above
Caco-2 [10] = experiment: as above
Calu-3 [11] = experiment: drug sensitivity score (DSS) for viability; higher = more toxic; extreme values may be limits of the assay
Vero E6 [12] = experiment: as above
U2OS [13] = experiment: as above
HepG2 [14] = experiment: as above
Caco-2 [15] = experiment: as above

| Structure (SMILES) | relative viability EC50 (Calu-3 [1]) [µM] | relative viability EC50 (Vero E6 [2]) [µM] | relative viability EC50 (U2OS [3]) [µM] | relative viability EC50 (HepG2 [4]) [µM] | relative viability EC50 (Caco-2 [5]) [µM] | cell viability (Calu-3 [6]; 1 nM) [%] | cell viability (Calu-3 [6]; 10 nM) [%] | cell viability (Calu-3 [6]; 100 nM) [%] | cell viability (Calu-3 [6]; 1000 nM) [%] | cell viability (Calu-3 [6]; 10000 nM) [%] | cell viability (Vero E6 [7]; 1 nM) [%] | cell viability (Vero E6 [7]; 10 nM) [%] | cell viability (Vero E6 [7]; 100 nM) [%] | cell viability (Vero E6 [7]; 1000 nM) [%] | cell viability (Vero E6 [7]; 10000 nM) [%] | cell viability (U2OS [8]; 1 nM) [%] | cell viability (U2OS [8]; 10 nM) [%] | cell viability (U2OS [8]; 100 nM) [%] | cell viability (U2OS [8]; 1000 nM) [%] | cell viability (U2OS [8]; 10000 nM) [%] | cell viability (HepG2 [9]; 1 nM) [%] | cell viability (HepG2 [9]; 10 nM) [%] | cell viability (HepG2 [9]; 100 nM) [%] | cell viability (HepG2 [9]; 1000 nM) [%] | cell viability (HepG2 [9]; 10000 nM) [%] | cell viability (Caco-2 [10]; 1 nM) [%] | cell viability (Caco-2 [10]; 10 nM) [%] | cell viability (Caco-2 [10]; 100 nM) [%] | cell viability (Caco-2 [10]; 1000 nM) [%] | cell viability (Caco-2 [10]; 10000 nM) [%] | drug sensitivity score (Calu-3 [11]) | drug sensitivity score (Vero E6 [12]) | drug sensitivity score (U2OS [13]) | drug sensitivity score (HepG2 [14]) | drug sensitivity score (Caco-2 [15]) |
| --- | --- | --- | --- | --- | --- | --- | --- | --- | --- | --- | --- | --- | --- | --- | --- | --- | --- | --- | --- | --- | --- | --- | --- | --- | --- | --- | --- | --- | --- | --- | --- | --- | --- | --- | --- |
| Cc1cccc(-c2[nH]c(C(C)(C)C)nc2-c2ccc3nccnc3c2)n1 | > 10 | > 10 | > 10 | 1.64 | 2.14 | 106 | 104 | 109 | 102 | 87.3 | 99.3 | 99.4 | 104 | 98.1 | 81.6 | 96.8 | 101 | 95 | 89.2 | 79 | 101 | 95.2 | 103 | 80.5 | 12.9 | 104 | 98.1 | 104 | 91.1 | 29.8 | 0 | 0.7 | 1.3 | 7.9 | 5.4 |
| Cc1ncc(Cl)cc1NCc1ccc(C(=O)N[C@@H](CC2CCCC2)C(=O)NC2CC2)s1 | > 10 | > 10 | > 10 | > 10 | > 10 | 94.7 | 106 | 99.8 | 89.7 | 109 | 107 | 94.7 | 104 | 98 | 91.6 | 99.5 | 104 | 94.5 | 95 | 90.6 | 100 | 102 | 97.5 | 89.7 | 88.2 | 99.9 | 104 | 97.5 | 96.3 | 96.6 | 0 | 0 | 0 | 0.4 | 0 |
| Cc1noc(NS(=O)(=O)c2cccc3c(N(C)C)cccc23)c1C | > 10 | > 10 | > 10 | > 10 | > 10 | 97.7 | 104 | 95.4 | 97.3 | 103 | 103 | 92.8 | 98.3 | 90.5 | 103 | 93.5 | 101 | 100 | 100 | 103 | 99.6 | 96 | 108 | 94.5 | 110 | 80.6 | 103 | 96.7 | 91.7 | 105 | 0 | 0 | 0 | 0 | 0 |
| O=C(O)c1ccc(CN2CCC(CN[C@@H]3C[C@H]3c3ccccc3)CC2)cc1 | > 10 | > 10 | > 10 | > 10 | > 10 | 89.3 | 101 | 94.7 | 102 | 103 | 100 | 103 | 99.2 | 90.9 | 95.2 | 95.9 | 96.8 | 95.8 | 98.3 | 96 | 105 | 93.8 | 104 | 92.5 | 92 | 101 | 108 | 94 | 105 | 102 | 0 | 0 | 0 | 0 | 0 |
| Oc1ccc(-c2nc(-c3ccc(F)cc3)c(-c3ccncc3)[nH]2)cc1 | > 10 | > 10 | > 10 | > 10 | > 10 | 87.3 | 106 | 104 | 118 | 91.2 | 97.7 | 100 | 91.1 | 93.4 | 111 | 96.6 | 101 | 94.8 | 98.1 | 89.8 | 101 | 103 | 102 | 94 | 83.5 | 88.1 | 104 | 100 | 95 | 91.1 | 0 | 0 | 0 | 0.9 | 0 |
| Nc1ccc(-c2nc3ccc(-c4nc5ccc(N)cc5[nH]4)cc3[nH]2)cc1 [Ro-90-7501] | > 10 | > 10 | > 10 | – | > 10 | 104 | 105 | 102 | 102 | 97 | 93.3 | 101 | 89.7 | 98.7 | 113 | 105 | 94.5 | 100 | 98.5 | 100 | 98.3 | 98.7 | 93.4 | 79.5 | 54.6 | 94 | 91.6 | 96.8 | 95.3 | 99.7 | 0 | 0 | 0 | 4.5 | 0 |
| COC(=O)c1c(-c2cc(OC)c(OC)c(OC)c2)c2ccnc(OCc3ncccn3)c2c(=O)n1Cc1ccnc(C)c1 [T-0156] | > 10 | > 10 | > 10 | – | > 10 | 87 | 96.4 | 90.2 | 98.5 | 101 | 96 | 94.4 | 102 | 105 | 109 | 95.6 | 103 | 96.5 | 99.3 | 100 | – | – | – | – | – | 96.4 | 93 | 89.6 | 99.9 | 103 | 0 | 0 | 0 | – | 0 |
| Cc1cn([C@H]2O[C@@H](CO)[C@H](O)[C@H]2F)c(=O)[nH]c1=O [clevudine] | > 10 | – | > 10 | > 10 | > 10 | 90.3 | 106 | 106 | 97.9 | 99.3 | – | – | – | – | – | 92.4 | 102 | 101 | 98.2 | 97.2 | 105 | 92.7 | 104 | 95.2 | 97.1 | 102 | 105 | 94.4 | 108 | 87.5 | 0 | – | 0 | 0 | 0 |
| CN(C)CC(c1ccc(O)cc1)C1(O)CCCCC1 (centres undefined) [desvenlafaxine] | > 10 | > 10 | > 10 | – | > 10 | 98.8 | 110 | 97.3 | 109 | 98.7 | 101 | 97.2 | 97.5 | 92.6 | 94.3 | 99.1 | 99.7 | 96.5 | 97.5 | 94.2 | – | – | – | – | – | 105 | 102 | 99.6 | 98.2 | 99.2 | 0 | 0 | 0 | – | 0 |
| C=C(CC)C(=O)c1ccc(OCC(=O)O)c(Cl)c1Cl [etacrynic-acid] | > 10 | – | > 10 | > 10 | > 10 | 90.3 | 94 | 97.5 | 90.5 | 106 | – | – | – | – | – | 98.7 | 101 | 97.8 | 102 | 103 | 99.4 | 110 | 105 | 100 | 86.2 | 93.4 | 100 | 96.2 | 84.9 | 97 | 0 | – | 0 | 0.1 | 0 |
| Cc1cccc(C)c1NC(=O)c1ccccc1C(=O)O [ftaxilide] | > 10 | > 10 | > 10 | – | > 10 | 103 | 106 | 98.6 | 122 | 106 | 107 | 102 | 99.8 | 96.3 | 100 | 102 | 105 | 98.5 | 101 | 97.2 | – | – | – | – | – | 94.5 | 100 | 102 | 99.8 | 104 | 0 | 0 | 0 | – | 0 |
| COc1cccc(N2CCN(C3=Nc4c(F)cccc4[C@H](CC(=O)O)N3c3cc(C(F)(F)F)ccc3OC)CC2)c1 [letermovir] | > 10 | – | > 10 | > 10 | > 10 | 99.6 | 96 | 93.9 | 101 | 113 | – | – | – | – | – | 105 | 106 | 95.8 | 105 | 94.9 | 102 | 86.2 | 94.3 | 99.1 | 90.6 | 97.4 | 103 | 103 | 97.9 | 83.1 | 0 | – | 0 | 0 | 0.6 |
| NC(=O)c1ccc[n+]([C@@H]2O[C@H](COP(=O)([O-])OP(=O)(O)OC[C@H]3O[C@@H](n4cnc5c(N)ncnc54)[C@H](O)[C@@H]3O)[C@@H](O)[C@H]2O)c1 [nadide] | > 10 | – | > 10 | > 10 | > 10 | 102 | 103 | 94 | 96.1 | 106 | – | – | – | – | – | 101 | 95.9 | 97.9 | 101 | 111 | 110 | 113 | 92.1 | 99.2 | 99.8 | 92.3 | 89.7 | 99.9 | 90.5 | 113 | 0 | – | 0 | 0 | 0 |
| NCCC[C@H](N)C(=O)O [ornithine] | > 10 | – | > 10 | > 10 | > 10 | 103 | 95.6 | 102 | 102 | 104 | – | – | – | – | – | 100 | 93.5 | 99.1 | 96.8 | 104 | 97.3 | 112 | 94.7 | 97.2 | 91.8 | 97.2 | 94.7 | 101 | 101 | 100 | 0 | – | 0 | 0 | 0 |
| O=C(NS(=O)(=O)c1ccc(Br)s1)c1ccc(Cl)cc1Cl [tasisulam] | > 10 | – | > 10 | > 10 | > 10 | 96.2 | 104 | 97.6 | 95.4 | 100 | – | – | – | – | – | 97.2 | 98.1 | 96 | 101 | 102 | 114 | 94.2 | 105 | 110 | 107 | 99.7 | 104 | 94.9 | 101 | 92 | 0 | – | 0 | 0 | 0 |
| NCCNCCNCCN [trientine] | > 10 | – | > 10 | > 10 | > 10 | 89 | 101 | 99 | 98.7 | 99.9 | – | – | – | – | – | 100 | 99.1 | 100 | 97.5 | 104 | 90.9 | 96.6 | 92.1 | 98 | 92.8 | 107 | 106 | 96.4 | 94.4 | 97.6 | 0 | – | 0 | 0 | 0 |
